Test results taken from patent US5457103A, “3',5'-di-tert.-butyl-4'-hydroxy flavones” (Adir et Compagnie, priority 1992, dated 1995).

Experiments:
Human LDLs [1] = assay: Modification of LDLs by copper sulphate (inhibition of LDL oxidation, MDA production); format: biochemical; settings: 24 hours, copper sulfate 5 μM, compounds 0.1 μM to 100 μM; read-out: IC50 (reduction by 50% of the production of MDA), oxidation of LDLs by copper sulfate
Procedure: (§1) This activity was compared with that of probucol and vitamin E taken as reference products.
Modification of LDLs by copper sulphate
Human LDLs are incubated for 24 hours in the presence of copper sulfate (5 μM) and in the absence or in the presence of the compounds tested (from 0.1 μM to 100 μM).
After incubation, the peroxidation of the LDLs is evaluated by electrophoresis on agar gel and by the formation of one of the products of lipid peroxidation: malonic dialdehyde (MDA) (cf. Parthasarathy S. et al., J. Clin. Invest., 77, (1986), 641-644).
The activity of the compounds tested is evaluated by calculating the concentrations that reduce by 50% (IC50) the production of MDA compared with the control experiments in the absence of a product of the invention.

Human LDLs [2] = assay: Modification of LDLs by endothelial cells of the rabbit aorta (inhibition of LDL oxidation, MDA production); format: cell-based; settings: 24 hours, endothelial cells of rabbit aorta (RECL B4 line), compounds 0.1 to 100 μM; read-out: IC50 (reduction by 50% of the production of MDA), oxidation of LDLs by endothelial cells
Procedure: as §1
Modification of LDLs by endothelial cells
Human LDLs are incubated for 24 hours in the presence of endothelial cells of the rabbit aorta (RECL B4 line, provenance: Pr. Steinberg, USA) and in the absence or in the presence of the tested compounds (from 0.1 to 100 μM).
After incubation, the peroxidation of the LDLs is evaluated as in Example 21 by electrophoresis on agar gel and by the formation of MDA (cf. Steinbrecher, U.P. et al., Proc. Nat. Acad. Sci. USA, 81, (1984), 3883-3887). The activity of the compounds tested is evaluated by calculating the concentrations that reduce by 50% (IC50) the production of MDA compared with the control experiments in the absence of a product of the invention.
The results of this test of inhibition of oxidation of LDLs by endothelial cells are grouped below: […]

[3] = tested on: coronary arteries caused to contract by F2α prostaglandin (PGF2α); assay: Vasorelaxant activity on isolated coronary artery rings contracted by PGF2α; design: species or system Yucatan miniature pigs; settings: for activity at 0.1 µM / activity at 0.3 µM / activity at 1 µM / activity at 3 µM / activity at 10 µM: 0.25 h, PGF2α 4 μM, indomethacin 10 μM, cumulative concentrations every 15 minutes, read-out: tension as a percentage of the maximum tension observed under PGF2α
Procedure: Study of the compounds of the invention on isolated vessels
Yucatan miniature pigs (Ch. River) are anaesthetised with pentobarbitone. The circumflex branch of the left coronary artery is removed and proximal rings of approximately 4 mm are prepared. The organs are placed in a temperature-controlled 20 ml bath containing a physiological solution having the composition:
maintained at 37° C., pH =7.4 and with 95% oxygen and 5% carbon dioxide. The initial tension is established progressively up to 6 g. After a stabilisation period of 60 minutes, the rings are caused to contract by PGF2a (4 μM) in the presence of indomethacin (10 μM). As soon as this concentration has stabilised, the products of the present invention are tested by adding cumulative concentrations of the product of Example 17 and probucol every 15 minutes in comparison with the control experiments with the solvent used (dimethyl sulfoxide:DMSO).

Molecule	IC50 (Human LDLs [1])	IC50 (Human LDLs [2])	also measured
CC(C)(C)c1cc(-c2cc(=O)c3ccc(OCCN4CCOCC4)cc3o2)cc(C(C)(C)C)c1O [Example 3, 3', 5'-di-tert.-butyl-4'-hydroxy-.7-(4"-morpholinylethoxy)flavone]	800 nM		
CC(C)(C)c1cc(-c2cc(=O)c3ccccc3o2)cc(C(C)(C)C)c1O [Example 14, 3',5'-di-tert-butyl-4'-hydroxyflavone]	3000 nM	2500 nM	
CC(C)(C)c1cc(-c2cc(=O)c3ccc(OCC(=O)N4CCN(Cc5ccccc5)CC4)cc3o2)cc(C(C)(C)C)c1O [Example 6, 3',5'-di-tert.-butyl-4'-hydroxy-7-[2"-(N-benzylpiperazino)-2"-oxo-ethoxy]flavone]	3000 nM		
CC(C)(C)c1cc(-c2cc(=O)c3ccc(O)cc3o2)cc(C(C)(C)C)c1O [Example 1, 3',5'-di-tert-butyl-7,4'-dihydroxyflavone]	1000 nM		
CC(C)(C)c1cc(-c2cc(=O)c3ccc(OCC(=O)N4CCCCC4)cc3o2)cc(C(C)(C)C)c1O [Example 5, 3',5'-di-tert-butyl-4'-hydroxy-7-(2"-piperidino-2"-oxoethoxy)flavone]	3000 nM		
CCCCCCOc1ccc2c(=O)cc(-c3cc(C(C)(C)C)c(O)c(C(C)(C)C)c3)oc2c1 [Example 2, 3',5'-di-tert.-butyl-7-n-hexyloxy-4'-hydroxyflavone]	5000 nM		
CCN(CC)C(=O)COc1ccc2c(=O)cc(-c3cc(C(C)(C)C)c(O)c(C(C)(C)C)c3)oc2c1 [Example 7, 3',5'-di-tert-butyl-4'-hydroxy-7-(N,N-diethylacetamidoxy) flavone]	3000 nM		
CC(C)(C)c1cc(-c2cc(=O)c3ccc(OCc4ccc(Cl)cc4)cc3o2)cc(C(C)(C)C)c1O [Example 4, 7-p-chlorobenzyloxy-3',5'-di-tert.-butyl-4'-hydroxyflavone]	7000 nM		

Further lines, with some results ahead:

IC50 (Human LDLs [1])	IC50 (Human LDLs [2])	Molecule	also measured
5000 nM		CC(C)(C)c1cc(-c2cc(=O)c3ccc(OCC(=O)O)cc3o2)cc(C(C)(C)C)c1O [Example 18]	
3000 nM	4000 nM	CC(C)(Sc1cc(C(C)(C)C)c(O)c(C(C)(C)C)c1)Sc1cc(C(C)(C)C)c(O)c(C(C)(C)C)c1 [PROBUCOL, reference compound]	activity at 0.1 µM ([3]; Sus scrofa): 93.3%; activity at 0.3 µM ([3]; Sus scrofa): 85.6%; activity at 1 µM ([3]; Sus scrofa): 77.3%; activity at 3 µM ([3]; Sus scrofa): 66%; activity at 10 µM ([3]; Sus scrofa): 49.2%
3000 nM	500 nM	CCOC(=O)C(C)(C)Oc1ccc2c(=O)cc(-c3cc(C(C)(C)C)c(O)c(C(C)(C)C)c3)oc2c1 [Example 15, Ethyl 2-17-(3',5'-di-tert.-butyl-4'-hydroxy)flavonyl]oxy-2,2-dimethyl acetate]	
30000 nM	700 nM	CC(C)(C)c1cc(C(=O)Oc2ccc3c(=O)cc(-c4cc(C(C)(C)C)c(O)c(C(C)(C)C)c4)oc3c2)cc(C(C)(C)C)c1O [Example 20, 3',5'-di-tert-butyl-4'-hydroxy-7-(3",5"-di-tert-butyl-4"-hydroxy)benzoyloxyflavone]	
3000 nM	500 nM	CC(C)(C)c1cc(-c2cc(=O)c3ccc(OCC(=O)O)cc3o2)cc(C(C)(C)C)c1O [Example 17, 2-[7-(3',5'-di-tert.-butyl-4'-hydroxy)flavonyl]oxyacetic acid]	
> 100000 nM	4000 nM	VITAMIN E [reference compound]	
3000 nM	800 nM	CCOC(=O)COc1ccc2c(=O)cc(-c3cc(C(C)(C)C)c(O)c(C(C)(C)C)c3)oc2c1 [Example 16, Ethyl 2-[7-(3',5'-di-tert.-butyl-4'-hydroxy)flavonyl]oxyacetate]	activity at 0.1 µM ([3]; Sus scrofa): 95.4%; activity at 0.3 µM ([3]; Sus scrofa): 85%; activity at 1 µM ([3]; Sus scrofa): 74.1%; activity at 3 µM ([3]; Sus scrofa): 37.3%; activity at 10 µM ([3]; Sus scrofa): 20.2%; IC50 ([3]; Sus scrofa, coronary artery rings contracted by PGF2α, read-out: IC50 of vascular relaxation): ~2600 nM; vascular relaxation (in words) ([3]; coronary artery rings contracted by PGF2α): concentration-dependent vascular relaxation
